Experimental data: patent US10758522B2, “Small molecule analogs of the nemo binding peptide” (THE SCRIPPS RESEARCH INSTITUTE, priority 2015, dated 2020)
Entries after “also recorded” stand apart in the source; their conditions may differ.

How the values were obtained:
[1] = biological target: T1, IKK complex (IKKß, IKKα and NEMO) (Homo sapiens, UniProt Q9Y6K9); test: Co-immunoprecipitation of NEMO with IKKß in 293 cells; type: cell-based; settings: Zinc-5 at 4 hours, Zinc-13 at 1 hour, NBD peptide at 4 hours
T1 construct: analyzed by Western blot for the level of co-precipitated NEMO; endogenous in cells; host or cells: 293 (HEK293) cells
Description: FIG. 8 is a bar graph showing the inhibition of TNFα by NBDA-1 (Zinc-13). […] In addition, we have examined the ability of the compounds to disrupt the IKK complex, comprised of IKKß, IKKα and NEMO.
A non-functional, related compound Zinc-7 had no effect.

p-IκBα = test: Western blot of IκBα phosphorylation after TNF-α; type: cell-based; settings: 10 ng/ml TNF-α, 0, 5 and 10 min, 100 μM compound
Description: To confirm that the NBD mimetics reduce IKK activity, the extent of phosphorylation of the IKK target, IκBα, in response to 10 ng/ml of TNF-α was determined by Western blot at 0, 5 and 10 min after TNF-α stimulation. […] To determine if the mimetics also reduce NF-κB DNA binding activity, electrophoretic mobility shift assay (EMSA) was conducted both in vivo and in vitro.
HEK293 cells grown in a 6-well plate at 1×10^6 cells/well were left untreated or treated with 100 μM of ZINC12909780 or ZINC3369392 for 30 min, followed by 10 ng/ml of TNFα for 0, 5 and 10 min. Cells were then harvested for western blot. Cell lysate was prepared in RIPA buffer (20 mM Tris-HCl (pH 7.5), 150 mM NaCl, 1 mM Na^2EDTA, 1 mM EGTA, 1% NP-40, 1% sodium deoxycholate, 2.5 mM sodium pyrophosphate, 1 mM beta-glycerophosphate, 1 mM Na3VO4, 1 μg/ml leupeptin, 1× protease inhibitor cocktails (sigma) and 1× Halt phosphatase inhibitor cocktail (Thermo)). 30 ug of protein was resolved by MINI-PROTEAN TGX 4-15% SDS-PAGE. Blots were blocked in 5% non-fat milk. Primary antibodies were incubated at 4° C. overnight and secondary antibodies were incubated at room temperature for 1 hour. Anti-p-IκBα (1:1000 CST) and anti-IκBα (1:2000 CST) were used to assess NF-κB activation. Anti-GAPDH (1:5000 CST) was used as a loading control.

NF-κB = test: Firefly luciferase NF-κB reporter assay in TNF-α-stimulated HEK293 cells; type: cell-based; settings: for inhibition of TNF-α-induced NF-κB activation (luciferase reporter), in words: 293 NF-κB luciferase reporter cells, 10 ng/ml TNF-α, compound 12909780 at 100 μM
Description: This model was used to screen a subset of the drug-like ZINC 8.0 database set (˜900,000 compounds) (Irwin et al., 2005). We were able to identify 161 hits that matched at least 6 features out of eight of the pharmacophore model. […] Two compounds termed NBDA-1 (Zinc-13) and NBDA-2 (Zinc-5), successfully passed these filters (See FIG. 4) and were purchased for biological testing. The compounds were then tested for ability to inhibit TNF-alpha-mediated induction of NF-κB activity in a 293 cells stably modified with a NF-κB luciferase reporter.
The activation of NF-κB was then quantitated by measuring the level of luciferase activity. […] Also, protein extracts were prepared from the same cells and the level of phospho-IkB determined, a marker of IKK activity.
To test if the small molecules identified by the in silico screen inhibit NF-κB activation, a HEK293 cell line stably expressing a luciferase reporter driven by a synthetic, NF-κB-dependent promoter was utilized. To induce NF-κB activation, cells were treated with 10 ng/ml of TNF-α and harvested three hours post-treatment for analysis of luciferase activity. […] To determine if compound 12909780 inhibited NF-κB in a dose dependent manner, concentrations were tested at 0, 6.25, 25, 50 and 100 μM.
HEK293 cells stably transfected with luciferase reporter plasmid driven by NF-κB were seeded in 96-well plate in triplicate and pretreated with DMSO or varying small molecules at indicated concentration for 30 min, followed by the stimulation of 10 ng/ml of TNFα for 3 hr. Cell were washed with PBS once and harvested in passive lysis buffer. Luciferase assay (Promega) was performed using a luminometer according to the manufacturer's instructions.

[2] = test system: K14-Cre+/−; Ercc1−/fl; Skh1−/− mice; test: Naked mouse skin photoaging study, topical treatment; type: in vivo
Description: Naked mice of strain K14-Cre^+/−; Ercc1^−/fl; Skh1^−/− were treated with SR12343 versus vehicle control, then exposed to UV light for […]. The NBD mimetic SR12343 and SR2460 were tested for their ability to reduce the effects of photoaging in a mouse model. To make analysis of skin aging easier, usually hairless mice are utilized. Previously studies have shown that exposure of the hairless Skh1^−/− mouse to UV results in skin aging over 5 months as measured by skin thickness, elastosis, collagen damage, synthesis and degradation, increased ratio of collagen III to I, increased GAGs, and wrinkles and sagging. To accelerate this photoaging process, we generated a mouse model where Ercc1-dependent DNA repair activity is eliminated in K14 expressing skin cells in the Skh1^−/− mice (K14-Cre^+/−; Ercc1^−/fl; Skh1^−/− mice). In these mice, chronic UV exposure gives rise to evidence of photoaging 6 times faster than in the Skh1^−/− mice, allowing for analysis of skin aging in 2-4 weeks (FIGS. 51 (A, B, and C).
For testing of drugs for effects on photoargng in the K14-Cre^+/−; Ercc1^−/fl; Skh1^−/− mice, the mice are first tattooed to outlined quadrants for drug treatment. The mice were then exposed to UV 3× (total of 1 kJ/m^2/wk) for 4 weeks in a tanning booth. This dose regiment is the equivalent of one year of sun exposure.
A 50 mg/ml solution of SR12343 was then prepared in a DMSO gel for topical application. The SR12343 gel was administered topically 5 times per week and mice exposed to UV 3× per week as indicated. It is important to note that the compound was administered following UV dosing to eliminate any anti-UV effects of the drug. At the midway point and at the end of the experiment, the mice were analyzed using a TEWL Meter for skin thickness, elasticity and hydration. At the time of sacrifice, skin sections are taken for analysis of the extent of cellular senescence by RT-PCR.

T1 sequence (Q9Y6K9 whole entry, one chain of several): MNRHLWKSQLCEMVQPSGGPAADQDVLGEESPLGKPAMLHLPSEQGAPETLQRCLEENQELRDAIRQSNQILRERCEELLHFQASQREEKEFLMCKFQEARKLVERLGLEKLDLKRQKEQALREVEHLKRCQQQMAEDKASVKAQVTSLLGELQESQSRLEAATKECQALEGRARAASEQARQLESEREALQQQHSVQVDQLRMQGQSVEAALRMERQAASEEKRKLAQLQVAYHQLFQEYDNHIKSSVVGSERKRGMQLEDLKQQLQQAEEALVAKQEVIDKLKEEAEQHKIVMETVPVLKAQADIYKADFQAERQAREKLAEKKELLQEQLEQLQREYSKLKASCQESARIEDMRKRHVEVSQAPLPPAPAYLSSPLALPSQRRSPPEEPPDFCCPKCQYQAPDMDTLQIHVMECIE

SMILES | level of NEMO co-immunoprecipitated with IKKß [1] | level of phospho-IκBα / phosphorylation of IkB (p-IκBα) | level of phospho-IκBα / phosphorylation of IkB (p-IκBα; listed as Zinc-13) | level of phospho-IκBα / phosphorylation of IkB (p-IκBα; listed as compound 12909780) | dose-dependent inhibition of TNF-α-induced NF-κB activation, in words (NF-κB; 0, 6.25, 25, 50 and 100 μM) | inhibition of TNF-α-induced NF-κB activation (luciferase reporter), in words (NF-κB) | inhibition of TNF-α-induced NF-κB activation (luciferase reporter), in words (NF-κB; listed as Zinc-13) | overall appearance of the skin, wrinkles ([2]; 50 mg/ml in DMSO gel, topical 5 times per week, UV 3× per week) | skin elasticity ([2]; topical gel, UV-exposed) | skin hydration ([2]; topical gel, UV-exposed) | expression of senescent marker p16 in skin ([2]; topical gel, UV-exposed, RT-PCR) | molecular markers of skin aging and appearance of the skin ([2]; topical treatment)
Nc1ncccc1C(=O)OCC(=O)Nc1ccc(Cl)cc1F [NBDA-1, 2-((4-chloro-2-fluorophenyl)amino)-2-oxoethyl 2-aminonicotinate] | reduced the level of co-immunoprecipitated NEMO; also recorded: disrupt the interaction between IKKß and IKKgamma | reduces the level of phospho-IκB | reduced phosphorylation of IkB | mild reduction | only high concentrations (50 and 100 μM) of the compound were able to inhibit TNF-α-induced NF-κB activation significantly | slightly downregulated NF-κB activation | able to reduce activation of NF-κB by TNF-alpha at low micromolar ranges |  |  |  |  | 
O=C(CNc1ccc(Cl)cn1)NCCc1cccc(Br)c1 [SR12343, N-(3-bromophenethyl)-2-((5-chloropyridin-2-yl)amino)acetamide] |  |  |  |  |  |  |  | reducing the number and depth of the wrinkles | restores skin elasticity | improved skin hydration | lowered the expression of senescent markers such as p16 | improved molecular markers of skin aging as well as the overall appearance of the skin
